Results reported in patent publication US6355620B1, “C-2 modified erythromycin derivatives” (Abbott Laboratories, priority 1999, dated 2002).

Key:
Test in all cases: In vitro antibacterial activity, agar dilution MIC
Type in all cases: cell-based
Escherichiacoli DC-2 = details: code SS, BHI agar, 35-37° C., 20 to 24 hours, unit assumed
Protocol: (§1) Representative compounds of the present invention were assayed in vitro for antibacterial activity as follows: Twelve petri dishes containing successive aqueous dilutions of the test compound mixed with 10 mL of sterilized Brain Heart Infusion (BHI) agar (Difco 0418-01-5) were prepared. Each plate was inoculated with 1:100 (or 1:10 for slow-growing strains, such as Micrococcus and Streptococcus) dilutions of up to 32 different microorganisms, using a Steers replicator block. The inoculated plates were incubated at 35-37° C. for 20 to 24 hours. In addition, a control plate, using BHI agar containing no test compound, was prepared and incubated at the beginning and end of each test.
(§2) An additional plate containing a compound having known susceptibility patterns for the organisms being tested and belonging to the same antibiotic class as the test compound was also prepared and incubated as a further control, as well as to provide test-to-test comparability.
(§3) After incubation, each plate was visually inspected. The minimum inhibitory concentration (MIC) was defined as the lowest concentration of drug yielding no growth, a slight haze, or sparsely isolated colonies on the inoculum spot as compared to the growth control.

[1] = test system: Staphylococcus aureus 1775; details: code GG, BHI agar, 35-37° C., 20 to 24 hours, unit assumed
Protocol: as §1, §2, §3

[2] = test system: Staphylococcus aureus ATCC 6538P; details: code AA, BHI agar, 35-37° C., 20 to 24 hours, unit assumed
Protocol: as §1, §2, §3

[3] = test system: Staphylococcus aureus A-5278; details: code CC, BHI agar, 35-37° C., 20 to 24 hours, unit assumed
Protocol: as §1, §2, §3

Candida albicans CCH 442 = details: code TT, BHI agar, 35-37° C., 20 to 24 hours, unit assumed
Protocol: as §1, §2, §3

[4] = test system: Micrococcusluteus ATCC 4698; details: code PP, BHI agar, 35-37° C., 20 to 24 hours, unit assumed
Protocol: as §1, §2, §3

[5] = test system: Nocardia Asteroides ATCC 99700; details: code VV, BHI agar, 35-37° C., 20 to 24 hours, unit assumed
Protocol: as §1, §2, §3

[6] = test system: Streptococcus agalactiae CMX 508; details: code KK, BHI agar, 35-37° C., 20 to 24 hours, unit assumed
Protocol: as §1, §2, §3

[7] = test system: Staphylococcus aureus NCTC 10649M; details: code EE, BHI agar, 35-37° C., 20 to 24 hours, unit assumed
Protocol: as §1, §2, §3

[8] = test system: Streptococcus Pneumonia GYR 1171; details: code YY, BHI agar, 35-37° C., 20 to 24 hours, unit assumed
Protocol: as §1, §2, §3

[9] = test system: Streptococcus Pneumonia ATCC 6303; details: code XX, BHI agar, 35-37° C., 20 to 24 hours, unit assumed
Protocol: as §1, §2, §3

[10] = test system: Streptococcus pyogenes EES61; details: code LL, BHI agar, 35-37° C., 20 to 24 hours, unit assumed
Protocol: as §1, §2, §3

Escherichiacoli JUHL = details: code QQ, BHI agar, 35-37° C., 20 to 24 hours, unit assumed
Protocol: as §1, §2, §3

[11] = test system: Staphylococcus aureus CMX 642A; details: code DD, BHI agar, 35-37° C., 20 to 24 hours, unit assumed
Protocol: as §1, §2, §3

[12] = test system: Enterococcusfaecium ATCC X043; details: code II, BHI agar, 35-37° C., 20 to 24 hours, unit assumed
Protocol: as §1, §2, §3

[13] = test system: Streptococcus bovis A-5169; details: code JJ, BHI agar, 35-37° C., 20 to 24 hours, unit assumed
Protocol: as §1, §2, §3

[14] = test system: Streptococcus Pneumonia 5649; details: code ZZA, BHI agar, 35-37° C., 20 to 24 hours, unit assumed
Protocol: as §1, §2, §3

[15] = test system: Streptococcus pyogenes PIU 2548; details: code NN, BHI agar, 35-37° C., 20 to 24 hours, unit assumed
Protocol: as §1, §2, §3

[16] = test system: Streptococcus pyogenes 930; details: code MM, BHI agar, 35-37° C., 20 to 24 hours, unit assumed
Protocol: as §1, §2, §3

Escherichiacoli SS = details: code RR, BHI agar, 35-37° C., 20 to 24 hours, unit assumed
Protocol: as §1, §2, §3

[17] = test system: Micrococcusluteus ATCC 9341; details: code OO, BHI agar, 35-37° C., 20 to 24 hours, unit assumed
Protocol: as §1, §2, §3

[18] = test system: Staphylococcus aureus A-5177; details: code BB, BHI agar, 35-37° C., 20 to 24 hours, unit assumed
Protocol: as §1, §2, §3

[19] = test system: Mycobacterium smegmatis ATCC 114; details: code UU, BHI agar, 35-37° C., 20 to 24 hours, unit assumed
Protocol: as §1, §2, §3

[20] = test system: Staphylococcus epidermidis 3519; details: code HH, BHI agar, 35-37° C., 20 to 24 hours, unit assumed
Protocol: as §1, §2, §3

[21] = test system: Haemophilislnfluenzae DILL AMP R; details: code WW, BHI agar, 35-37° C., 20 to 24 hours, unit assumed
Protocol: as §1, §2, §3

[22] = test system: Staphylococcus aureus CMX 553; details: code FF, BHI agar, 35-37° C., 20 to 24 hours, unit assumed
Protocol: as §1, §2, §3

[23] = test system: Streptococcus Pneumonia 5979; details: code ZZ, BHI agar, 35-37° C., 20 to 24 hours, unit assumed
Protocol: as §1, §2, §3

Compound	Antibacterial Activity (MIC) (Escherichiacoli DC-2) [µg/mL]	Antibacterial Activity (MIC) [1] [µg/mL]	Antibacterial Activity (MIC) [2] [µg/mL]	Antibacterial Activity (MIC) [3] [µg/mL]	Antibacterial Activity (MIC) (Candida albicans CCH 442) [µg/mL]	Antibacterial Activity (MIC) [4] [µg/mL]	Antibacterial Activity (MIC) [5] [µg/mL]	Antibacterial Activity (MIC) [6] [µg/mL]	Antibacterial Activity (MIC) [7] [µg/mL]	Antibacterial Activity (MIC) [8] [µg/mL]	Antibacterial Activity (MIC) [9] [µg/mL]	Antibacterial Activity (MIC) [10] [µg/mL]	Antibacterial Activity (MIC) (Escherichiacoli JUHL) [µg/mL]	Antibacterial Activity (MIC) [11] [µg/mL]	Antibacterial Activity (MIC) [12] [µg/mL]	Antibacterial Activity (MIC) [13] [µg/mL]	Antibacterial Activity (MIC) [14] [µg/mL]	Antibacterial Activity (MIC) [15] [µg/mL]	Antibacterial Activity (MIC) [16] [µg/mL]	Antibacterial Activity (MIC) (Escherichiacoli SS) [µg/mL]	further results
CC[C@H]1OC(=O)[C@H](C)[C@@H](O[C@H]2C[C@@](C)(OC)[C@@H](O)[C@H](C)O2)[C@H](C)[C@@H](O[C@@H]2O[C@H](C)C[C@H](N(C)C)[C@H]2O)[C@](C)(O)C[C@@H](C)C(=O)[C@H](C)[C@@H](O)[C@]1(C)O [Ery. A standard, Erythromycin A, reference compound]	> 100	> 100	0.2	> 100	> 100	0.2	0.1	0.05	0.39	0.06	0.06	0.05	> 100	0.39	0.05	0.02	16	6.2	> 100	0.78	Antibacterial Activity (MIC) [17]: 0.05 µg/mL; Antibacterial Activity (MIC) [18]: 3.1 µg/mL; Antibacterial Activity (MIC) [19]: 3.1 µg/mL; Antibacterial Activity (MIC) [20]: 0.39 µg/mL; Antibacterial Activity (MIC) [21]: 4 µg/mL; Antibacterial Activity (MIC) [22]: 0.39 µg/mL
CCC1OC(=O)C(C)(CC=Cc2ccccc2)C(=O)C(C)C(OC2OC(C)CC(N(C)C)C2O)C(C)(OC)CC(C)C(=O)C(C)C2NC(=O)OC12C (centres unmarked) [Example 1, Compound of formula (II): R^a is CH3, R^b is H, Y and Z together are O, T is —NH—, R is —CH2CH═CH-(phenyl)]	> 100	100	25	100	100	6.2	25	12.5	50	4	8	12.5	> 100	25	25	12.5	16	12.5	50	50	Antibacterial Activity (MIC) [23]: 64 µg/mL; Antibacterial Activity (MIC) [17]: 3.1 µg/mL; Antibacterial Activity (MIC) [18]: 25 µg/mL; Antibacterial Activity (MIC) [19]: 25 µg/mL; Antibacterial Activity (MIC) [20]: 50 µg/mL; Antibacterial Activity (MIC) [21]: > 128 µg/mL; Antibacterial Activity (MIC) [22]: 50 µg/mL
CCC1OC(=O)C(C)(O)C(=O)C(C)C(OC2OC(C)CC(N(C)C)C2O)C(C)(OC)CC(C)C(=O)C(C)C2N(CCCCc3ccccc3)C(=O)OC12C (centres unmarked) [Example 2, Compound of formula (II): R^a is CH3, R^b is H, Y and Z together are O, T is —N(W(R^g))—, W is —(CH2)p—, p is 4, R^g is phenyl, R is —OH]	> 100	100	1.56	100	100	0.78	3.1	0.2	1.56	0.25	0.5	0.1	> 100	3.1	0.39	0.2	1	0.39	25	6.2	Antibacterial Activity (MIC) [23]: 32 µg/mL; Antibacterial Activity (MIC) [17]: 0.39 µg/mL; Antibacterial Activity (MIC) [18]: 1.56 µg/mL; Antibacterial Activity (MIC) [19]: 3.1 µg/mL; Antibacterial Activity (MIC) [20]: 3.1 µg/mL; Antibacterial Activity (MIC) [21]: 64 µg/mL; Antibacterial Activity (MIC) [22]: 1.56 µg/mL
CCC1OC(=O)C(C)(O)C(=O)C(C)C(OC2OC(C)CC(N(C)C)C2O)C(C)(OCC(O)CO)CC(C)C(=O)C(C)C2NC(=O)OC12C (centres unmarked) [Example 3, Compound of formula (II): R^a is —CH2CH(OH)CH2OH, R^b is H, Y and Z together are O, T is —NH—, R is —OH]	> 100	> 100	> 100	> 100	> 100	> 100	> 100	50	> 100	32	64	100	> 100	> 100	100	50	> 128	> 100	> 100	100	Antibacterial Activity (MIC) [23]: > 128 µg/mL; Antibacterial Activity (MIC) [17]: 50 µg/mL; Antibacterial Activity (MIC) [18]: > 100 µg/mL; Antibacterial Activity (MIC) [19]: > 100 µg/mL; Antibacterial Activity (MIC) [20]: > 100 µg/mL; Antibacterial Activity (MIC) [21]: > 128 µg/mL; Antibacterial Activity (MIC) [22]: > 100 µg/mL
